We go through one molecule from patent US20250195670A1, “METFORMIN NANOFORMULATIONS AND METHODS OF USE THEREOF” (priority 2022, published 2025).

The conditions of data set [1]: oral metformin; cited from earlier work.
A further data set has as its system UNKPC cells. The data set can be described thus: UNKPC cell growth (optical density). The data set is classed as cell-based. As for the experimental part:
The ability of the dendrimers was also tested for their ability to deliver metformin to UNKPC cells, a pancreatic cancer cell line. Specifically, […] were exposed to metformin, PAMAM-OH, or P4-MET.

Another data set deals with Ln229 cells. The data set can be described thus: Ln229 cell growth (optical density). It counts as cell-based. To be noted: Homo sapiens, LN-229. As for the experimental part:
FIGS. 3A-3D provide graphs of Ln229 growth at the indicated concentrations of metformin (FIG. 3A), PAMAM-OH (FIG. 3B), PAMAM-OH and metformin (FIG. 3C), and P4-MET (FIG. 3D).
The ability of the dendrimers was also tested for their ability to deliver metformin to Ln229 cells, a human glioblastoma cell line sensitive to metformin. Specifically, Ln229 cells were exposed to metformin, PAMAM-OH, PAMAM-OH with metformin, or P4-MET.

The test system of a further data set is Panc-1 cells. The data set can be described thus: Panc-1 cell growth (optical density). It counts as cell-based. The settings on record: Homo sapiens. As to the method: The ability of the dendrimers was also tested for their ability to deliver metformin to Panc-1 cells, a human pancreatic cancer cell line. Specifically, Panc-1 cells were exposed to metformin, PAMAM-OH, and P4-MET.

The subject of the next data set is U87MG cells. The data set can be described thus: U87MG cell growth (optical density). It counts as cell-based. To be noted: Homo sapiens, U-87 MG. As to the method:
FIGS. 2A-2D provide graphs of U87MG growth at the indicated concentrations of metformin (FIG. 2A), PAMAM-OH (FIG. 2B), PAMAM-OH and metformin (FIG. 2C), and P4-MET (FIG. 2D).
The ability of the dendrimers was tested for their ability to deliver metformin to U87MG cells, a human glioma cell line sensitive to metformin. Specifically, U87MG cells were exposed to metformin, PAMAM-OH, PAMAM-OH with metformin, or P4-MET.

The test system of the next data set is MGPP3 cells. The data set can be described thus: MGPP3 cell growth (optical density). The data set is classed as cell-based. To be noted: Mus musculus. As to the method: FIGS. 4A-4D provide graphs of MGPP3 growth at the indicated concentrations of metformin (FIG. 4A), PAMAM-OH (FIG. 4B), PAMAM-OH and metformin (FIG. 4C), and P4-MET (FIG. 4D).
The ability of the dendrimers was also tested for their ability to deliver metformin to MGPP3 cells, a mouse glioblastoma cell line sensitive to metformin. Specifically, MGPP3 cells were exposed to metformin, PAMAM-OH, PAMAM-OH with metformin, or P4-MET.

For data set [2] the following is noted: in vivo; cited from earlier work.
A further data set concerns cell cultures. To be noted: cited from earlier work.
In data set [3] the test system is bone marrow-derived macrophages (BMDM). Description: BMDM growth (optical density). It counts as cell-based. The settings on record: Mus musculus; BMDM cells, 72 hours. As for the experimental part:
FIGS. 5A-5D provide graphs of bone marrow-derived macrophages (BMDM) growth at the indicated concentrations of metformin (FIG. 5A), PAMAM-OH (FIG. 5B), PAMAM-OH and metformin (FIG. 5C), and P4-MET (FIG. 5D).
The ability of the dendrimers was also tested for their ability to deliver metformin to bone marrow-derived macrophages (BMDM). Specifically, BMDM cells were exposed to metformin, PAMAM-OH, PAMAM-OH with metformin, or P4-MET for 72 hours.

As a reminder, the IC50 is the concentration needed to halve the response being measured. Read a low IC50 as greater potency in that assay.

With `CN(C)C(=N)NC(=N)N` [metformin, 1,1-dimethylbiguanide], in data set [1], the “pharmacological concentrations in patients” value is recorded as “less than 50 μM”. Also, the half-inhibitory concentration (IC50) in the data set with UNKPC cells came out at 1.64 mM; with Ln229 cells, 0.99 mM; with Panc-1 cells, 5.24 mM; with U87MG cells, 14.4 mM; in the data set with MGPP3 cells it was 12.5 mM; in data set [3], 3.53 mM. Besides, in [2], the “gastrointestinal-related side effects, share of patients” value is on record as 20-30%. Further, the “typical effective concentration in cell cultures” value in the data set on cell cultures is “in the mM range”.
